Test results as given in PubChem BioAssay AID2060504 (Molecular Pharmacology Branch, DTP, NCI, 2025).
pIC50: −log10 of the molar value.

System: 636577-100-R-J1-PDC complex spheroid viability
Experiment: Anticancer human tumor 636577-100-R-J1-PDC patient-derived endometrial adenocarcinoma cell line growth inhibition [GQUAD]
Conditions: for pIC50: curve of first compound; for viability, T/C: stronger effect = lower value
From the text: DNA G-quadruplex Stabilizer Agents in Combinations in Complex Spheroids
A high-throughput screen of multi-cell type tumor spheroids was designed to identify active combinations of DNA G-quadruplex stabilizer agents and targeted small molecules. Complex spheroids include a stromal component modeled by human endothelial cells (HUVEC) and fibroblasts modeled by human mesenchymal stem cells (MSCs). The concentration ranges selected for each drug and investigational agent were based upon clinically achievable concentrations if the clinical Cmax of the agent was known.
Compounds. The drugs and investigational agents: pidnarulex (CX-5461; NSC782164), APTO-253 (NSC789042), BRACO-19 (NSC847499), peposertib (NSC802822), ceralasertib (NSC780249), elimusertib (NSC800525), camonsertib (NSC841442), AZD-1390 (NSC803789), olaparib (NSC753686), talazoparib (NSC767125), ART-558 (NSC835418), sotorasib (NSC818433), MRTX-1133 (NSC836407), SN-38 (NSC673596), topotecan (NSC609699), etoposide (NSC141540), doxorubicin (NSC123127), gemcitabine (NSC613327), 5-fluorouracil (NSC19893), paclitaxel (NSC125973), vemurafenib (NSC761431), panobinostat (NSC761190), R-306465 (JNJ-16241199; NSC773264), adavosertib (NSC754352), TP-3654 (NSC805149), carboplatin (NSC241240), KSQ-4279 (NSC840948), and staurosporine (NSC755774) were obtained from the National Cancer Institute (NCI) Developmental Therapeutics Program Chemical Repository (34). The FDA-approved anticancer drug set is available from the NCI Developmental Therapeutics Program. […] The stock solutions were prepared in dimethyl sulfoxide (DMSO, Sigma-Aldrich, St. Louis, MO, cat. D2650) at 800-fold the tested concentration and stored at -70 degrees C prior to their use. All drugs and investigational agents were tested over a range starting from a high concentration at or near the clinical Cmax and decreasing in half-log increments. If the clinical Cmax for an agent had not been determined, the highest concentration tested was 10 microM.
2.3 Cell Culture. All cells were maintained in an incubator at 37 degrees C and 5% CO2 with 95% humidity. The PDC lines were cultured according to standard operating procedures established by the NCI PDMR. All PDCs were thawed and cultured in Matrigel-coated flasks prepared with a working solution of 1X Ham's F-12 nutrient mix, without supplementation (Invitrogen, cat. 11765054), 100 U/mL penicillin-streptomycin (Invitrogen, cat. 15140122), and 2.5% Matrigel (Corning Inc., cat. 354248) for the first three passages. The 857933-349-R-J2-PDC line was cultured in 6C/Colon 1B media, which includes advanced DMEM/F-12 (Thermo Fisher Scientific, cat. 12634028), 10 mM HEPES (Thermo Fisher Scientific, cat. 15630080), 1X GlutaMAX supplement (Thermo Fisher Scientific, cat. 35050061), 0.1 mg/mL primocin (InvivoGen, cat. ant-pm-2), 10% defined fetal bovine serum, heat inactivated (HyClone Laboratories Inc., cat. SH30070.03HI), 50% L-WRN conditioned media (ATCC, cat. CRL-3276), 1.25 mM N-Acetyl-L-cysteine (Sigma-Aldrich, cat. A9165), 10 mM nicotinamide (Sigma-Aldrich, cat. N0636), 1X B-27 supplement (Thermo Fisher Scientific, cat. 17504044), 1X N-2 supplement (Thermo Fisher Scientific, cat. 17502048), 10 microM Y-27632 dihydrochloride (Tocris Bioscience, cat. 1254), and 50 ng/mL human EGF recombinant protein (Thermo Fisher Scientific, cat. PHG0311). The 485176-168-R4-J1-PDC line was cultured in Panc media, which includes all 6C/Colon 1B media components plus 100 ng/mL human FGF-10 (Thermo Fisher Scientific, cat. 100-26), 500 nM SB-431542 (Selleckchem, cat. S1067), and gastrin (Tocris, cat. 3006).
[…]

[1] = second compound 0.0316 µM, first compound 0.0316 µM
[2] = second compound 0.0316 µM, first compound 0.316 µM
[3] = second compound 0.1 µM, first compound 0.0316 µM
[4] = second compound 0.1 µM, first compound 0.316 µM
[5] = second compound 0.316 µM, first compound 0.0316 µM
[6] = second compound 0.316 µM, first compound 0.316 µM
[7] = second compound 1 µM, first compound 0.0316 µM
[8] = second compound 1 µM, first compound 0.316 µM
[9] = second compound 3.16 µM, first compound 0.0316 µM
[10] = second compound 3.16 µM, first compound 0.316 µM
[11] = second compound 10 µM, first compound 0.0316 µM
[12] = second compound 10 µM, first compound 0.316 µM
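Further: viability read after seven days of drug exposure.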
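Wherever viability, T/C is given: luminescence signal used as a proxy for viable cells; 100% = DMSO vehicle control wells.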

In the case of COc1cccc2c1C(=O)c1c(O)c3c(c(O)c1C2=O)CC(O)(C(=O)CO)CC3OC1CC(N)C(O)C(C)O1 (centres undefined) + Cc1[nH]c2ccc(F)cc2c1-c1nc2c3cccnc3c3ncccc3c2[nH]1, the pIC50 (second compound 0.0316 µM) was over 7.50, the pIC50 (second compound 0.1 µM) was over 7.50 and the pIC50 (second compound 0.316 µM) was over 7.50. The pIC50 (second compound 1 µM) was over 7.50, the pIC50 (second compound 3.16 µM) was over 7.50 and the pIC50 (second compound 10 µM) was over 7.50. For the same compound, the viability, T/C [1] was 37.8%, the viability, T/C (second compound 0.0316 µM, first compound 0.1 µM) was 16.7% and the viability, T/C [2] was 15.8%. The viability, T/C (second compound 0.0316 µM, first compound 1 µM) was 11.2%, the viability, T/C (second compound 0.0316 µM, first compound 3.16 µM) was 0.53% and the viability, T/C (second compound 0.0316 µM, first compound 10 µM) was 0.35%. For the same compound, the viability, T/C [3] was 39.7%, the viability, T/C (second compound 0.1 µM, first compound 0.1 µM) was 18% and the viability, T/C [4] was 8.25%. It also gave a viability, T/C (second compound 0.1 µM, first compound 1 µM) of 9.06%, a viability, T/C (second compound 0.1 µM, first compound 3.16 µM) of 0.53% and a viability, T/C (second compound 0.1 µM, first compound 10 µM) of 0.34%. It also gave a viability, T/C [5] of 37%, a viability, T/C (second compound 0.316 µM, first compound 0.1 µM) of 18.9% and a viability, T/C [6] of 14%. For the same compound, the viability, T/C (second compound 0.316 µM, first compound 1 µM) was 9.89%, the viability, T/C (second compound 0.316 µM, first compound 3.16 µM) was 0.62% and the viability, T/C (second compound 0.316 µM, first compound 10 µM) was 0.43%. It also gave a viability, T/C [7] of 29.9%, a viability, T/C (second compound 1 µM, first compound 0.1 µM) of 18.7% and a viability, T/C [8] of 12.2%. For the same compound, the viability, T/C (second compound 1 µM, first compound 1 µM) was 8.92%, the viability, T/C (second compound 1 µM, first compound 3.16 µM) was 0.78% and the viability, T/C (second compound 1 µM, first compound 10 µM) was 0.5%. The viability, T/C [9] was 18.3%, the viability, T/C (second compound 3.16 µM, first compound 0.1 µM) was 18.4% and the viability, T/C [10] was 16.1%. The viability, T/C (second compound 3.16 µM, first compound 1 µM) was 11.4%, the viability, T/C (second compound 3.16 µM, first compound 3.16 µM) was 0.97% and the viability, T/C (second compound 3.16 µM, first compound 10 µM) was 0.58%. The viability, T/C [11] was 30.1%, the viability, T/C (second compound 10 µM, first compound 0.1 µM) was 18.8% and the viability, T/C [12] was 16.1%. The viability, T/C (second compound 10 µM, first compound 1 µM) was 11.9%, the viability, T/C (second compound 10 µM, first compound 3.16 µM) was 0.69% and the viability, T/C (second compound 10 µM, first compound 10 µM) was 0.49%.
For Cn1ncnc1[C@H]1c2n[nH]c(=O)c3cc(F)cc(c23)N[C@@H]1c1ccc(F)cc1 + Cc1[nH]c2ccc(F)cc2c1-c1nc2c3cccnc3c3ncccc3c2[nH]1, the pIC50 (second compound 0.0316 µM) was 7.53, the pIC50 (second compound 0.1 µM) was 7.11 and the pIC50 (second compound 0.316 µM) was 7.46. For the same compound, the pIC50 (second compound 1 µM) was 7.08, the pIC50 (second compound 3.16 µM) was over 9.00 and the pIC50 (second compound 10 µM) was 7.06. For the same compound, the viability, T/C (second compound 0.0316 µM, first compound 0.000999 µM) was 49.4%, the viability, T/C (second compound 0.0316 µM, first compound 0.00316 µM) was 88% and the viability, T/C (second compound 0.0316 µM, first compound 0.00999 µM) was 94.7%. The viability, T/C [1] was 48%, the viability, T/C (second compound 0.0316 µM, first compound 0.0999 µM) was 46.8% and the viability, T/C [2] was 39.2%. For the same compound, the viability, T/C (second compound 0.1 µM, first compound 0.000999 µM) was 82.3%, the viability, T/C (second compound 0.1 µM, first compound 0.00316 µM) was 110% and the viability, T/C (second compound 0.1 µM, first compound 0.00999 µM) was 85%. For the same compound, the viability, T/C [3] was 59%, the viability, T/C (second compound 0.1 µM, first compound 0.0999 µM) was 54.2% and the viability, T/C [4] was 30.8%. For the same compound, the viability, T/C (second compound 0.316 µM, first compound 0.000999 µM) was 64.6%, the viability, T/C (second compound 0.316 µM, first compound 0.00316 µM) was 102% and the viability, T/C (second compound 0.316 µM, first compound 0.00999 µM) was 68.7%. It also gave a viability, T/C [5] of 51.8%, a viability, T/C (second compound 0.316 µM, first compound 0.0999 µM) of 50.9% and a viability, T/C [6] of 35.7%. The viability, T/C (second compound 1 µM, first compound 0.000999 µM) was 35.3%, the viability, T/C (second compound 1 µM, first compound 0.00316 µM) was 76.3% and the viability, T/C (second compound 1 µM, first compound 0.00999 µM) was 63.1%. It also gave a viability, T/C [7] of 68.7%, a viability, T/C (second compound 1 µM, first compound 0.0999 µM) of 47.9% and a viability, T/C [8] of 38.4%. For the same compound, the viability, T/C (second compound 3.16 µM, first compound 0.000999 µM) was 36%, the viability, T/C (second compound 3.16 µM, first compound 0.00316 µM) was 36.9% and the viability, T/C (second compound 3.16 µM, first compound 0.00999 µM) was 43.2%. The viability, T/C [9] was 37.5%, the viability, T/C (second compound 3.16 µM, first compound 0.0999 µM) was 35.5% and the viability, T/C [10] was 25.3%. The viability, T/C (second compound 10 µM, first compound 0.000999 µM) was 62.5%, the viability, T/C (second compound 10 µM, first compound 0.00316 µM) was 47% and the viability, T/C (second compound 10 µM, first compound 0.00999 µM) was 62.2%. The viability, T/C [11] was 57.9%, the viability, T/C (second compound 10 µM, first compound 0.0999 µM) was 46.5% and the viability, T/C [12] was 36.4%.
